Source: patent US20260069531A1, “POLYMERIC LEUPROLIDE ACETATE FORMULATIONS” (Tolmar International Limited, priority 2023, published 2026)

What was measured:
[1] = LA gelation studies of drug solutions (60° C., inversion test, HPLC content); assay type: physicochemical; details: e-beam irradiated, 150 rpm, up to 16 days
Method: Drug solutions were prepared as described above and filled into syringes or glass vials. Syringes were untreated, contained various amounts of silicone, or were plasma coated for lubrication. Samples were irradiated by e-beam irradiation at not less than 25 kGy and stored at accelerated conditions of 60° C. with agitation at 150 rpm for up to 16 days. Samples were inspected periodically to determine if the drug solution remained a solution or had formed a solid/gel by an inversion test. Samples that had “gelled” were transferred to 5° C. for subsequent testing.
The gelation rate for each sample was calculated as Rate=1/(simulated 5° C. age at time of gelation in days). The Arrhenius equation was used to determine the simulated age, assuming standard reaction rate doubling for every 10° C. increase in temperature. […] Data was analyzed using JMP. […] Container type and lubrication were not significant.
Samples were tested for leuprolide content by HPLC. Leuprolide content was then converted to leuprolide acetate by multiplying by 1.078 (based on molecular mass ratios). A marked difference in leuprolide acetate content between the gelled and non-gelled samples was seen, with the tipping point between solution and solid/gelled samples occurring at about 45% LA.

[2] = assay type: physicochemical
Source text: To produce the drug/solvent bulk solution comprising the API (LA), the desired amount of the LA was combined with the solvent NMP or DMSO or combination of solvents with or without a co-solvent or other additives, in the indicated amounts (see individual experiments below). The API and solvent were combined in a glass vial or jar. Jars were mixed using the jar mill, Turbula, or shaker at room temperature until homogeneous. LA is soluble in NMP or DMSO and can load higher concentrations (at least 40% w/w). After dissolving the API in the organic solvent, the bulk solution was manually filled into syringes and capped with a tip cap. The syringes used for filling were either 1.2 mL male polypropylene syringes, 1.2 mL male cyclic olefin copolymer syringes or 1 mL male cyclic olefin copolymer syringes. Filled syringes were then packaged in labeled foil pouches with a Syringe A (polymer-solvent solution) and a desiccant pack and the pouches were sealed. After filling the syringes with the formulations, they were terminally sterilized with an external radiation dose of 30 kGy from e-beam processing. After terminal sterilization, the syringes were stored under refrigerated conditions (e.g., 2-8° C.) or accelerated conditions (>25° C. see individual experiments).

In the case of `CCNC(=O)[C@@H]1CCCN1C(=O)[C@H](CCCNC(=N)N)NC(=O)[C@H](CC(C)C)NC(=O)[C@@H](CC(C)C)NC(=O)[C@H](Cc1ccc(O)cc1)NC(=O)[C@H](CO)NC(=O)[C@H](Cc1c[nH]c2ccccc12)NC(=O)[C@H](Cc1c[nH]cn1)NC(=O)[C@@H]1CCC(=O)N1` [Leuprolide Acetate, leuprolide acetate], the “tipping point between solution and solid/gelled samples (leuprolide acetate content)” value [1] is reported as “about 45 % LA” and the “concentration of LA that can be loaded (soluble)” value [2] is reported as “at least 40 % w/w”.
